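Method: 48-hour compound exposure of cells in 96-well plates, five concentrations, linear interpolation of endpoints. GI50: concentration for 50% inhibition of growth.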 The source made the active and inactive calls. Cut-off read from the data, not from the text of the source: active = GI50 up to about 1.1 µM and inactive = higher.
Columns and labels:
Assay in all cases: NCI tumour cell line growth inhibition, 48 h
NCI/ADR-RES = tested on: NCI/ADR-RES
HL-60 = tested on: HL-60
XF498 = tested on: XF498
KM-20L2 = tested on: KM-20L2
NCI-H522 = tested on: NCI-H522
DMS-273 = tested on: DMS-273
RXF 393 = tested on: RXF 393
DLD-1 = tested on: DLD-1
Malme-3M = tested on: Malme-3M
MCF7 = tested on: MCF7
M14 = tested on: M14
ACHN = tested on: ACHN
SR = tested on: SR
TK-10 = tested on: TK-10

Structure (SMILES) | GI50 (NCI/ADR-RES) | GI50 (HL-60) | GI50 (XF498) | GI50 (KM-20L2) | GI50 (NCI-H522) | GI50 (DMS-273) | GI50 (RXF 393) | GI50 (DLD-1) | GI50 (Malme-3M) | GI50 (MCF7) | GI50 (M14) | GI50 (ACHN) | GI50 (SR) | GI50 (TK-10)
O=S(=O)(CCBr)CCBr | 2.17 µM (inactive) | 2.59 µM (inactive) | < 0.01 µM (active) | 11.1 µM (inactive) | 1.48 µM (inactive) | 4.59 µM (inactive) | 2.17 µM (inactive) | 2.86 µM (inactive) | 3.17 µM (inactive) | 4.91 µM (inactive) | – | – | – | –
CSc1nc(NC2OC(CO)C(O)C(O)C2O)c(N)c(=O)n1C (stereo unspecified) | > 100 µM (inactive) | > 100 µM (inactive) | > 100 µM (inactive) | > 100 µM (inactive) | > 100 µM (inactive) | > 100 µM (inactive) | > 100 µM (inactive) | > 100 µM (inactive) | > 100 µM (inactive) | > 100 µM (inactive) | – | – | – | –
CCC1CN2CCc3cc(OC)c(OC)cc3C2CC1CC1c2cc(OC)c(OC)cc2CCN1C(=O)C(N)Cc1ccccc1.[O-][Cl+3]([O-])([O-])O (stereo unspecified) | – | 1.59 µM (inactive) | 1.34 µM (inactive) | 1.07 µM (active) | 0.385 µM (active) | 1.98 µM (inactive) | 1.65 µM (inactive) | 3.38 µM (inactive) | 2.77 µM (inactive) | – | 0.628 µM (active) | 2.88 µM (inactive) | 0.423 µM (active) | 2.75 µM (inactive)
C=C1CC(OC)(C(OC)C(=O)N(C)[C@H]2OCO[C@H]3C2O[C@H](C[C@@H](COC)OC)C(C)(C)C3OC)O[C@H](C)[C@@H]1C (stereo partly specified) | 7.91 µM (inactive) | 15.9 µM (inactive) | 7.91 µM (inactive) | 13.3 µM (inactive) | 11.5 µM (inactive) | 6.9 µM (inactive) | 10.6 µM (inactive) | 18.3 µM (inactive) | – | 5.3 µM (inactive) | – | – | – | –

From ChEMBL document CHEMBL1201862, “PubChem BioAssay data set” (2004)
